How the values were obtained:
Format in all cases: biochemical
[1] = molecular target: Acetylcholinesterase (AChE) (Homo sapiens, UniProt P22303); assay: AChE inhibition assay; conditions: for Selectivity Index (SI): determined by BuChE/AChE (IC50 ratio)
[2] = molecular target: butylcholinesterase (BuChE) (Homo sapiens, UniProt P06276); assay: BChE inhibition assay
Aβ (1–42) = Aβ (1–42) (Homo sapiens, UniProt P05067); assay: Self-mediated Aβ
β-secretase = β-secretase (Homo sapiens, UniProt P56817); assay: β-secretase inhibition assay
β-secretase, sequence (P56817 46-501): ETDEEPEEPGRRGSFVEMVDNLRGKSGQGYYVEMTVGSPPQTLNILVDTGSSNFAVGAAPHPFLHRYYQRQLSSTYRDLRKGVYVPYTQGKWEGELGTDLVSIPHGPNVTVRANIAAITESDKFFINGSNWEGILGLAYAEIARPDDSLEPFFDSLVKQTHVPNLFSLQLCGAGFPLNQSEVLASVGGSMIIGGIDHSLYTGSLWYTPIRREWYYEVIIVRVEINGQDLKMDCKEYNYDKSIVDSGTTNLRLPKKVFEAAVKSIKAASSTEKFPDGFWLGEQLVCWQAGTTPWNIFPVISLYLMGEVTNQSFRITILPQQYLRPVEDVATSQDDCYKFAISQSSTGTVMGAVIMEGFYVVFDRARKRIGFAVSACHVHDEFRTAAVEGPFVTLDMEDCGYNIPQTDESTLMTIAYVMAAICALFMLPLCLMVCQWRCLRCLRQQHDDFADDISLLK

butylcholinesterase (BuChE), sequence (P06276 29-602): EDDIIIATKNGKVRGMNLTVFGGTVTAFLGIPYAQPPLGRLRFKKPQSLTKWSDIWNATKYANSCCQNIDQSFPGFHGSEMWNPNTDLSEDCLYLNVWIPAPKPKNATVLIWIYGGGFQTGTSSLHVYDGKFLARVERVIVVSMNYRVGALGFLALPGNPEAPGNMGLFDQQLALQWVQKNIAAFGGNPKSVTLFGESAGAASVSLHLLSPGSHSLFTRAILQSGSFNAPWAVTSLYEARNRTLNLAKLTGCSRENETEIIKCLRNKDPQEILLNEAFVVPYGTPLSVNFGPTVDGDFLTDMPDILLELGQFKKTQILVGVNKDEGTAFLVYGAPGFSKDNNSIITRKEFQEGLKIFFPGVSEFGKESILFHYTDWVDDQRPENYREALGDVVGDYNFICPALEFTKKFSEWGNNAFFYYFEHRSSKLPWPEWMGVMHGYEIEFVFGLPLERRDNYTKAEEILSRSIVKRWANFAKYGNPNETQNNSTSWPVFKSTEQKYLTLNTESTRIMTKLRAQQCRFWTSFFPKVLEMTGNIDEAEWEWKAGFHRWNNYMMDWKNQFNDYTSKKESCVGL
Acetylcholinesterase (AChE), sequence (P22303 32-614, species assumed): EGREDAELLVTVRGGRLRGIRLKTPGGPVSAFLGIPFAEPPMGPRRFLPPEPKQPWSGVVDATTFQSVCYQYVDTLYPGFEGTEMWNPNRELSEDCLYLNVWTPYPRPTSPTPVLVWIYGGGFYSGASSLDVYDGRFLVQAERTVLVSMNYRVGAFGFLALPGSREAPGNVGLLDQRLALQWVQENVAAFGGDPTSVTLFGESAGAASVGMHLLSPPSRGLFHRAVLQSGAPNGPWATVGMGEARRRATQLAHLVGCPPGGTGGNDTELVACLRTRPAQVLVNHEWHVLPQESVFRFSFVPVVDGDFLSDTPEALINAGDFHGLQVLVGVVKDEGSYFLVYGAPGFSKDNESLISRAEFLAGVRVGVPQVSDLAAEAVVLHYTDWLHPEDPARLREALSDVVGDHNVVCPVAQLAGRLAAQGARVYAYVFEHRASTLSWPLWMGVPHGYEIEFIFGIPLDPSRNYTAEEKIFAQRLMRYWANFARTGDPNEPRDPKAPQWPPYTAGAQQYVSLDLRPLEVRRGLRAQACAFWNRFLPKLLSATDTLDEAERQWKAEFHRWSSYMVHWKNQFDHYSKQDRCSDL
Aβ (1–42), sequence (P05067 672-713): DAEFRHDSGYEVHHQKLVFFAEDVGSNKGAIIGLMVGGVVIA

O=C(/C=C/c1ccccc1)c1ccc(OCCNC2CCN(Cc3ccc(Cl)c(Cl)c3)CC2)cc1 [8h, (E)-1-(4-(2-((1-(3,4-dichlorobenzyl)piperidin-4-yl)amino)ethoxy)phenyl)-3-phenylprop-2-en-1-one]
Selectivity Index (SI) [1]: 1.06

O=C(/C=C/c1ccccc1)c1ccc(OCCNC2CCN(Cc3ccc(F)cc3)CC2)cc1 [8d, (E)-1-(4-(2-((1-(4-fluorobenzyl)piperidin-4-yl)amino)ethoxy)phenyl)-3-phenylprop-2-en-1-one]
IC50 [1]: 14.2 ± 0.15 µM
Selectivity Index (SI) [1]: 1.86
IC50 [2]: 26.5 ± 0.28 µM

O=C(/C=C/c1ccccc1)c1ccc(OCCNC2CCN(Cc3ccccc3)CC2)cc1 [8a, (E)-1-(4-(2-((1-benzylpiperidin-4-yl)amino)ethoxy)phenyl)-3-phenylprop-2-en-1-one]
IC50 [1]: 32.34 ± 0.26 µM
Selectivity Index (SI) [1]: 0.67
IC50 [2]: 21.72 ± 0.11 µM

O=C(/C=C/c1ccccc1)c1ccc(OCCNC2CCN(Cc3ccc([N+](=O)[O-])cc3)CC2)cc1 [8e, (E)-1-(4-(2-((1-(4-nitrobenzyl)piperidin-4-yl)amino)ethoxy)phenyl)-3-phenylprop-2-en-1-one]
IC50 [1]: 28.62 ± 0.22 µM
Selectivity Index (SI) [1]: 0.87
IC50 [2]: 25 ± 0.31 µM

Cc1ccc(CN2CCC(NCCOc3ccc(C(=O)/C=C/c4ccccc4)cc3)CC2)cc1 [8g, (E)-1-(4-(2-((1-(4-methylbenzyl)piperidin-4-yl)amino)ethoxy)phenyl)-3-phenylprop-2-en-1-one]
IC50 (Aβ (1–42)): 18.2 ± 2.3 µM
IC50 (β-secretase): 23.1 ± 1.8 µM
IC50 [1]: 1.12 ± 0.13 µM
Selectivity Index (SI) [1]: 2.88
IC50 [2]: 3.23 ± 0.12 µM

O=C(/C=C/c1ccccc1)c1ccc(OCCNC2CCN(Cc3ccc(Br)cc3)CC2)cc1 [8c, (E)-1-(4-(2-((1-(4-bromobenzyl)piperidin-4-yl)amino)ethoxy)phenyl)-3-phenylprop-2-en-1-one]
IC50 [1]: 18.1 ± 0.33 µM
Selectivity Index (SI) [1]: 1.56
IC50 [2]: 28.4 ± 0.42 µM

O=C(/C=C/c1ccccc1)c1ccc(OCCNC2CCN(Cc3ccc(Cl)cc3)CC2)cc1 [8b, (E)-1-(4-(2-((1-(4-chlorobenzyl)piperidin-4-yl)amino)ethoxy)phenyl)-3-phenylprop-2-en-1-one]
IC50 [1]: 10 ± 0.54 µM
Selectivity Index (SI) [1]: 1.93
IC50 [2]: 19.45 ± 0.15 µM

COc1ccc(CN2CCC(NCCOc3ccc(C(=O)/C=C/c4ccccc4)cc3)CC2)cc1 [8f, (E)-1-(4-(2-((1-(4-methoxybenzyl)piperidin-4-yl)amino)ethoxy)phenyl)-3-phenylprop-2-en-1-one]
IC50 [1]: 4.22 ± 0.34 µM
Selectivity Index (SI) [1]: 2.23
fold less active against AChE than the parent compound (8g) ([1]; relative to 8g): approximately 3 fold
IC50 [2]: 9.45 ± 0.25 µM
fold less active against BuChE than the parent compound (8g) ([2]; relative to 8g): approximately 3 fold
